Reference: patent US8431596B2 (Cancer Research Technology Limited, priority 2007, dated 2013)

Target: T1, AXL (human catalytic domain) (Homo sapiens, UniProt P30530)
T1 construct: purchased Upstate Ltd. 14-512
T1 sequence (P30530 473-894): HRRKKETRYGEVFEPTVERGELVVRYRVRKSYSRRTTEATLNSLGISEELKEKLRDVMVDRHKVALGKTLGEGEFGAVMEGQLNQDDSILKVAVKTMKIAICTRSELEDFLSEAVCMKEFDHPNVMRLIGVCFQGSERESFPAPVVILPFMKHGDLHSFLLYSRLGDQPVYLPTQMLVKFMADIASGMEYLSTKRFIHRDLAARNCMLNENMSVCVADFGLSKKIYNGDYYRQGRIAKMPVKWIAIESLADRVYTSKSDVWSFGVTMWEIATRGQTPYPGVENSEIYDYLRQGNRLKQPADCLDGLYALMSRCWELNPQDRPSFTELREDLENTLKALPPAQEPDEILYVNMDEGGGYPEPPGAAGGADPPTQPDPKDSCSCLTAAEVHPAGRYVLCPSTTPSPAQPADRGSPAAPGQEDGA
Assay: AXL (human catalytic domain) Enzyme Activity Assay (IMAP fluorescence polarisation)
Assay type: biochemical
Summary of the method: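 Recombinant human AXL isoform 1 (aa473-894; final 15 nM) phosphorylated 100 nM fluorescein-CSK-tide with 150 μM ATP (KM) in HEPES pH 7.0/MgCl2/DTT buffer for 60 min at room temperature. IMAP fluorescence polarisation read after overnight binding; IC50 from 10-point 4-parameter logistic fits.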

[1] = further data set (WW-001 through WW-169, XX-001 through XX-469, YY-001 through YY-016, ZZ-001 through ZZ-003), 150 μM ATP
[2] = first data set, recombinant AXL isoform 1 aa473-894, 150 μM ATP

| IC50 [1] [nM] | IC50 [2] [nM] | SMILES |
| --- | --- | --- |
| 1000 to 10000 |  | Cn1ccnc1CNc1cccc(-c2cccc3nc(Nc4ccc(OCCN5CCCC5)cc4)nn23)c1 [XX-258] |
| 100 to 1000 |  | COc1ccc(-c2cccc3nc(Nc4cccc(C(=O)NCCO)c4)nn23)cc1 [XX-042] |
| 1000 to 10000 | < 1000 | COc1ccc(-c2cccc3nc(Nc4ccc(OCCO)cc4)nn23)cc1 [XX-011, 2-{4-[5-(4-methoxy-phenyl)-[1,2,4]triazolo[1,5-a]pyridin-2-ylamino]-phenoxy}-ethanol] |
| 100 to 1000 |  | CCN(CC)CCOc1cccc(Nc2nc3ccnc(-c4ccc5c(c4)OCCO5)n3n2)c1 [YY-009] |
| 1000 to 10000 | 1000 to 10000 | O=C(Nc1nc2cccc(-c3ccc(C(F)(F)F)cc3)n2n1)C1CC1 [WW-031] |
| 100 to 1000 |  | Cc1nnc(SCCn2cc(-c3cccc4nc(Nc5ccc(OCCN6CCCC6)cc5)nn34)cn2)s1 [XX-430] |
| 100 to 1000 |  | c1cc(-c2ccc3c(c2)OCCCO3)n2nc(Nc3ccc(OCCN4CCCC4)cc3)nc2c1 [XX-209] |
| 100 to 1000 |  | O=C(NCc1cccc(-c2cccc3nc(Nc4ccc(OCCN5CCCC5)cc4)nn23)c1)Nc1ccccc1 [XX-371] |
| 1000 to 10000 |  | Oc1cc(F)ccc1-c1cccc2nc(Nc3ccc(OCCN4CCCC4)cc3)nn12 [XX-196] |
| 100 to 1000 |  | c1coc(-c2cccc3nc(Nc4ccc(OCCN5CCCC5)cc4)nn23)c1 [XX-203] |
| 100 to 1000 | < 1000 | Nc1cccc(-c2cccc3nc(NC(=O)C4CC4)nn23)c1 [WW-054] |
| 100 to 1000 | < 1000 | O=C(Nc1nc2cccc(-c3ccc4c(c3)CCO4)n2n1)C1CC1 [WW-159] |
| 100 to 1000 | < 1000 | COc1ccc(-c2cccc3nc(NC(=O)C4CC4)nn23)cc1 [WW-005, cyclopropanecarboxylic acid [5-(4-methoxy-phenyl)-[1,2,4]triazolo[1,5-a]pyridin-2-yl]-amide] |
| 100 to 1000 |  | CN1CCN(C(=O)c2ccc(Nc3nc4cccc(-c5ccc6c(c5)OCCO6)n4n3)cc2)CC1 [XX-111] |
|  | < 1000 | c1cc(-c2ccc3c(c2)CCO3)n2nc(Nc3ccc(OCCN4CCCC4)cc3)nc2c1 [XX-044] |
| 100 to 1000 |  | COc1ccc(-c2cccc3nc(Nc4cccc(N(C)C(=O)C(C)N5CCOCC5)c4)nn23)cc1 (centres unmarked) [XX-391] |
| 1000 to 10000 |  | NC(=O)c1cccc(-c2cccc3nc(Nc4ccc(OCCN5CCCC5)cc4)nn23)c1 [XX-183] |
| ≤ 100 |  | O=S(=O)(C1CC1)n1cc(-c2cccc3nc(Nc4ccc(OCCN5CCCC5)cc4)nn23)cn1 [XX-375] |
| 100 to 1000 |  | COc1cccc(Cn2cc(-c3cccc4nc(Nc5ccc(OCCN6CCCC6)cc5)nn34)cn2)c1 [XX-369] |
| 1000 to 10000 |  | O=C(Cc1cccc(Cl)c1)Nc1ccc(-c2cccc3nc(Nc4ccc(OCCN5CCCC5)cc4)nn23)cc1 [XX-222] |
| 100 to 1000 | 364 | O=C(Nc1nc2ccnc(-c3ccc4c(c3)OCCO4)n2n1)C1CC1 [ZZ-001, Cyclopropanecarboxylic acid [5-(2,3-dihydro-benzo[1,4]dioxin-6-yl)-[1,2,4]triazolo[1,5-c]pyrimidin-2-yl]-amide] |
| 100 to 1000 | < 1000 | COc1ccc(-c2cccc3nc(Nc4ccc(OCCNCc5cccnc5)cc4)nn23)cc1 [XX-033] |
| 100 to 1000 | < 1000 | COc1ccc(-c2cccc3nc(Nc4ccc(OCCNCc5ccccn5)cc4)nn23)cc1 [XX-029] |
| 100 to 1000 |  | CCN(CC)CCCOc1ccc(Nc2nc3cccc(-c4ccc5c(c4)OCCO5)n3n2)cc1 [XX-329] |
| ≤ 100 |  | CCN(CC)CCNc1ccc(Nc2nc3cccc(-c4ccc5c(c4)OCCO5)n3n2)cc1 [XX-127] |
| 1000 to 10000 |  | FC(F)(F)c1cccc(COc2cccc(-c3cccc4nc(Nc5ccc(OCCN6CCCC6)cc5)nn34)c2)c1 [XX-401] |
| 100 to 1000 |  | CN(C)c1cccc(-c2cccc3nc(Nc4ccc(OCCN5CCCC5)cc4)nn23)c1 [XX-236] |
| 100 to 1000 |  | COc1ccc(-c2cccc3nc(Nc4ccc(N(C)C(=O)C(C)N5CCCC5)cc4)nn23)cc1 (centres unmarked) [XX-355] |

| IC50 [1] [nM] | IC50 [2] [nM] | SMILES |
| --- | --- | --- |
| 100 to 1000 |  | c1ccc(CNc2cccc(-c3cccc4nc(Nc5ccc(OCCN6CCCC6)cc5)nn34)c2)cc1 [XX-398] |
| 100 to 1000 |  | CCN(CC)CCOc1ccc(Nc2nc3cccc(-c4ccc(OC)cc4)n3n2)cc1Cl [XX-417] |
| 1000 to 10000 |  | CCN(CC)CCOc1cc(Nc2nc3ccnc(-c4cnn(Cc5ccccc5)c4)n3n2)ccn1 [YY-016] |
| 100 to 1000 |  | Cn1nccc1-c1ccc(-c2cccc3nc(Nc4ccc(OCCN5CCCC5)cc4)nn23)cc1 [XX-189] |
| 100 to 1000 |  | C[C@@H](N)COc1ccc(Nc2nc3cccc(-c4ccc5c(c4)OCCO5)n3n2)cc1 [XX-138] |
| 100 to 1000 |  | CCN(CC)CCOc1cc(Nc2nc3cccc(-c4cccc(CO)c4)n3n2)ccn1 [XX-357] |
| ≤ 100 |  | Cc1cccc(Cn2cc(-c3cccc4nc(Nc5ccc(OCCN6CCCC6)cc5)nn34)cn2)c1 [XX-290] |
| 100 to 1000 |  | O=C(Cn1cc(-c2cccc3nc(Nc4ccc(OCCN5CCCC5)cc4)nn23)cn1)c1cccs1 [XX-317] |
| 100 to 1000 |  | CCN(CC)CCOc1cc(Nc2nc3cccc(-c4ccc(OC)cc4)n3n2)ccc1C [XX-415] |
| 100 to 1000 |  | FC(F)(F)c1cc(-c2cccc3nc(Nc4ccc(OCCN5CCCC5)cc4)nn23)ccc1Cl [XX-291] |
| 100 to 1000 |  | CC(Sc1ccc(Nc2nc3cccc(-c4ccc5c(c4)OCCO5)n3n2)cc1)C(N)=O (centres unmarked) [XX-161] |
| 1000 to 10000 | 1000 to 10000 | CSc1ccc(-c2cccc3nc(NC(=O)C4CC4)nn23)cc1 [WW-136] |
| 100 to 1000 |  | Clc1cccc(Cn2cc(-c3cccc4nc(Nc5ccc(OCCN6CCCC6)cc5)nn34)cn2)c1 [XX-352] |
| ≤ 100 | < 1000 | CCN(CC)CCOc1cccc(Nc2nc3cccc(-c4ccc5c(c4)OCCO5)n3n2)c1 [XX-076] |
| ≤ 100 | < 1000 | c1cc(-c2ccc3c(c2)OCCO3)n2nc(Nc3ccc(OCCN4CCCCC4)cc3)nc2c1 [XX-054] |
| 1000 to 10000 |  | c1cc(NCc2cncs2)cc(-c2cccc3nc(Nc4ccc(OCCN5CCCC5)cc4)nn23)c1 [XX-260] |
| 1000 to 10000 | 1000 to 10000 | COc1ccc(-c2cccc3nc(NC(=O)C4CCCC4)nn23)cc1 [WW-046] |
| 100 to 1000 | < 1000 | COc1ccc(-c2cccc3nc(NC(=O)C4CC4)nn23)cc1C [WW-094] |
| 100 to 1000 |  | c1ccc(-c2cccc(-c3cccc4nc(Nc5ccc(OCCN6CCCC6)cc5)nn34)c2)cc1 [XX-164, (5-Biphenyl-3-yl-[1,2,4]triazolo[1,5-a]pyridin-2-yl)-[4-(2-pyrrolidin-1-yl-ethoxy)-phenyl]-amine] |
| 100 to 1000 |  | NCCNS(=O)(=O)c1ccc(Nc2nc3cccc(-c4ccc5c(c4)OCCO5)n3n2)cc1 [XX-144] |
| 100 to 1000 | < 1000 | O=C(Nc1nc2cccc(-c3ccc4[nH]ccc4c3)n2n1)C1CC1 [WW-018] |
| 100 to 1000 | < 1000 | CCOc1ccc(-c2cccc3nc(NC(=O)C4CC4)nn23)cc1 [WW-035] |
| 100 to 1000 |  | CS(=O)(=O)c1cccc(-c2cccc3nc(Nc4ccc(OCCN5CCCC5)cc4)nn23)c1 [XX-283] |
| 1000 to 10000 | 1000 to 10000 | CC(C)CCn1cc(-c2cccc3nc(NC(=O)C4CC4)nn23)cn1 [WW-135] |
| 100 to 1000 |  | Cc1cc(C)cc(-c2nccc3nc(Nc4ccc(OCCN5CCCC5)cc4)nn23)c1 [YY-015] |
| 100 to 1000 |  | O=C(Cn1cc(-c2cccc3nc(Nc4ccc(OCCN5CCCC5)cc4)nn23)cn1)c1ccccc1 [XX-346] |
| 100 to 1000 |  | Clc1cccc(-c2cccc3nc(Nc4ccc(OCCN5CCCC5)cc4)nn23)c1 [XX-210] |
